# Laboratory results taken from US20250064890A1, “PROTEIN COMPOSITIONS FOR THE TREATMENT OF INFLAMMATORY DISEASES” (Unichem Laboratories Limited, priority 2021, published 2025).
# How the values were obtained:
# [1] = tested on: oral (buccal) mucosa cells (TR146); experiment: Sub(G0/G1) cell population (cell cycle) against radiation induced damage; format: cell-based, human; details: for % Decrease in Apoptotic cells (with respect to control): Sub G0/G1
# Method: To determine the effect of test item on cell cycle, oral buccal mucosal cells (TR146) were incubated overnight in 5% CO2 incubator at 37° C. for 24 h. […] After 24 h of treatment, cells were exposed to chemotherapy (5-FU 10 mM) for 24 h or radiotherapy (Gamma radiation (3.5 kGy) using Cobalt 60) for 2 h.
# After incubation, cells were harvested by trypsinization and processed for Cell cycle assay. Accordingly, cells were harvested into prelabeled centrifuge tubes and centrifuged at 450 g for 5 min at room temperature (RT, low brake). The supernatants were removed carefully and discarded. 1 ml of 1× phosphate buffer saline (PBS) was added to the pellet and resuspended gently to make homogenous suspension. Cells were centrifuged at 450 g for 5 min, RT (low brake). The supernatant was carefully removed leaving behind approx. 100 μl of PBS. Cells were resuspended gently yet thoroughly in residual PBS. Ice-cold 70% ethanol (100 μl) was added drop-wise into cells in each tube while vortexing at low speed (fixation step). Cells stored at 4° C. for 24 h were centrifuged at 450 g for 5 min, RT (low brake). The supernatant was carefully removed without touching the pellet and discarded. 1 ml of 1×PBS was added into pellet and resuspended gently. Cells were incubated for 1 minute at RT. Cells were centrifuged at 450 g for 5 min, RT (low brake). The supernatant was removed carefully without touching the pellet, leaving behind approx. 20-50 μl of PBS. 200 μl of cell cycle reagent was added into each tube. Cells were resuspended gently and mixed. Cells were incubated for 30 min at RT in the dark. The stained samples were transferred into 96-well plates and acquired on flow cytometer (Guava technologies). Percentage of cells in Sub (G0/G1) phase were determined based on the concept that cell cycle reagent contains PI stain, which stains DNA of cells in different phases of cell cycle; Sub (G0/G1), G1, S, G2 and M. Cells in Sub (G0/G1) phase correspond to apoptotic cells. Percent inhibition in apoptotic cells is determined by the formula:
# =[(% Sub(G0/G1) cells in 5-FU/radiation alone)−(% Sub(G0/G1) cells in TI+5-FU/radiation)/% Sub(G0/G1) cells in 5-FU/radiation alone]*100
# [2] = tested on: oral (buccal) mucosa cells (TR146); details: human, 24 h
# Method: Non-cytotoxic concentration of recombinant lectin having the amino acid sequence of SEQ ID NO: 2 was determined by treating oral (buccal) mucosa cells (TR146) with varying concentration of SEQ ID NO: 2 for 24 hrs and determining the cell viability using MTT assay.
# IL-12/IL-23p40 = experiment: Multiplex analysis, chemotherapy (5-FU), TR146; format: cell-based, human
# Method: (§1) Oral buccal mucosal cells (TR146) cells were incubated overnight at 37° C. in 5% CO2 incubator. […] The cells were then stimulated with 5-FU (10 mM) for another 24h for chemotherapy and with gamma radiation (3.5 kGy) using Cobalt 60 for radiotherapy. After 24 h, cell culture supernatants were collected from each well and stored at −20° C. till multiplex analysis. For NF-kB estimations, cell lysates were prepared. Levels of biomarkers were estimated using Magpix® multiplex machine. The cells treated with Amifostine (along with 5-FU or radiation) were considered as positive control (PC). Untreated cells (5-FU or radiation alone treated) were used as negative control (NC).
# (§2) The percent modulation in each sample was determined as follows:
# (§3) [{Concentration of biomarkers (pg/ml) in Control cells (5-FU or radiation alone treated)−Concentration of biomarkers (pg/ml) in SEQ ID NO: 2+5-FU or radiation treated cells)}/Concentration of biomarkers (pg/ml) in Control cells (5-FU or radiation alone treated)]*100
# VEGF = experiment: Multiplex analysis, chemotherapy (5-FU), TR146; format: cell-based, human
# Method: as §1, §2, §3
# MMP-3 = experiment: Multiplex analysis, chemotherapy (5-FU), TR146; format: cell-based, human
# Method: as §1, §2, §3
# IL-6 = experiment: Multiplex analysis, chemotherapy (5-FU), TR146; format: cell-based, human
# Method: as §1, §2, §3
# IL-1β = experiment: Multiplex analysis, chemotherapy (5-FU), TR146; format: cell-based, human
# Method: as §1, §2, §3
# TNF-α = experiment: Multiplex analysis, chemotherapy (5-FU), TR146; format: cell-based, human
# Method: as §1, §2, §3
# [3] = tested on: oral (buccal) mucosa cells (TR146); experiment: Annexin positive cell population against radiation damage; format: cell-based, human; details: for % Apoptotic cells: Annexin positive
# Method: Oral buccal mucosal cells (TR146) were incubated overnight in 5% CO2 incubator at 37° C. for 24 h. […] After 24 h of treatment, cells were exposed to damage (5-FU 5 mM) for 1.25 h for chemotherapy induced inflammation and exposed to gamma radiation (3.5 kGy) using Cobalt 60 for radiation induced inflammation. After the exposure, the anti-apoptotic effect of SEQ ID NO 2 was determined by restoration of mitochondrial membrane depolarization by JC-1 staining and reduction in apoptotic cell populations (Annexin positive and subG0/G1 cells in cell cycle analysis).
# To determine the reduction in apoptotic cell populations using annexin-v staining cells were gently harvested into pre-labeled sterile centrifuge tubes and centrifuged at 300×g for 5-7 min. Supernatant were discarded and the pellet was resuspended in 200 μl of fresh culture medium. 100 μl of cell suspension was transferred into pre-labeled sterile centrifuge tubes. 100 μl of Annexin-V reagent was added to each tube and incubated for 30 min at RT in dark. Cells stained for Annexin-V were then transferred into 96-well plates and acquired on flow cytometer (Guava technologies). Percentage of Annexin-V positive cells was calculated as follows:
# ={[% Annexin positive cells in 5-FU or radiation alone]−[% Annexin positive cells in (TI+5-FU) or (TI+radiation)]/% Annexin positive cells in 5-FU or radiation alone}*100
# NF-kB = experiment: Multiplex analysis, chemotherapy (5-FU), TR146 cell lysates; format: cell-based, human
# Method: as §1, §2, §3
# [4] = 0.1 μg/ml + Radiation (3.5 kGy)
compound,measurement,setting,value
"NCCCNCCSP(=O)(O)O [Amifostine, reference compound]",% Apoptotic cells (Sub G0/G1),[1]; [4],19.4%
same,% Decrease in Apoptotic cells (with respect to control),[1]; [4],45.1%
same,% Apoptotic cells (Sub G0/G1),[1]; 1 μg/ml + Radiation (3.5 kGy),21.8%
same,% Decrease in Apoptotic cells (with respect to control),[1]; 1 μg/ml + Radiation (3.5 kGy),38.2%
same,% Apoptotic cells (Sub G0/G1),[1]; 10 μg/ml + Radiation (3.5 kGy),12.9%
same,% Decrease in Apoptotic cells (with respect to control),[1]; 10 μg/ml + Radiation (3.5 kGy),63.5%
same,non-cytotoxic concentration range,[2],1 to 25 µg/mL
same,Percentage Inhibition IL-12/IL-23p40,IL-12/IL-23p40; 1 μg/ml + 5-FU (10 mM),0%
same,Percentage Inhibition IL-12/IL-23p40,IL-12/IL-23p40; 10 μg/ml + 5-FU (10 mM),−2.1%
same,Percentage Inhibition IL-12/IL-23p40,IL-12/IL-23p40; 50 μg/ml + 5-FU (10 mM),13.4%
same,Percentage Inhibition VGEF,VEGF; 1 μg/ml + 5-FU (10 mM),27.9%
same,Percentage Inhibition VGEF,VEGF; 10 μg/ml + 5-FU (10 mM),35.4%
same,Percentage Inhibition VGEF,VEGF; 50 μg/ml + 5-FU (10 mM),39.6%
same,Percentage Inhibition MMP-3,MMP-3; 1 μg/ml + 5-FU (10 mM),22.6%
same,Percentage Inhibition MMP-3,MMP-3; 10 μg/ml + 5-FU (10 mM),23.4%
same,Percentage Inhibition MMP-3,MMP-3; 50 μg/ml + 5-FU (10 mM),26.8%
same,Percentage Inhibition IL-6,IL-6; 1 μg/ml + 5-FU (10 mM),7.2%
same,Percentage Inhibition IL-6,IL-6; 10 μg/ml + 5-FU (10 mM),8.9%
same,Percentage Inhibition IL-6,IL-6; 50 μg/ml + 5-FU (10 mM),35.2%
same,Percentage Inhibition IL-1β,IL-1β; 1 μg/ml + 5-FU (10 mM),14.2%
same,Percentage Inhibition IL-1β,IL-1β; 10 μg/ml + 5-FU (10 mM),19.5%
same,Percentage Inhibition IL-1β,IL-1β; 50 μg/ml + 5-FU (10 mM),46.6%
same,Percentage Inhibition TNF-α,TNF-α; 1 μg/ml + 5-FU (10 mM),10%
same,Percentage Inhibition TNF-α,TNF-α; 10 μg/ml + 5-FU (10 mM),13.3%
same,Percentage Inhibition TNF-α,TNF-α; 50 μg/ml + 5-FU (10 mM),10%
same,% Decrease in Apoptotic cells (with respect to radiation control),[3]; [4],47.3%
same,% Apoptotic cells,[3]; [4],7.2%
same,% Decrease in Apoptotic cells (with respect to radiation control),[3]; 1 μg/ml + Radiation (3.5 kGy),32.6%
same,% Apoptotic cells,[3]; 1 μg/ml + Radiation (3.5 kGy),9.2%
same,% Decrease in Apoptotic cells (with respect to radiation control),[3]; 10 μg/ml + Radiation (3.5 kGy),63%
same,% Apoptotic cells,[3]; 10 μg/ml + Radiation (3.5 kGy),5.1%
same,Percentage Inhibition NF-kB,NF-kB; 1 μg/ml + 5-FU (10 mM),100%
same,Percentage Inhibition NF-kB,NF-kB; 10 μg/ml + 5-FU (10 mM),48.2%
same,Percentage Inhibition NF-kB,NF-kB; 50 μg/ml + 5-FU (10 mM),14.2%
